Data from patent US4113774A, “N-(Dichloroacetyl) diamine compounds and process of preparing same” (Sterling Drug Inc., priority 1977, dated 1978).

Key:
[1] = molecular target: liver acetaldehyde dehydrogenase; test: Inhibition of liver acetaldehyde dehydrogenase (I50); format: biochemical; settings: bovine liver enzyme, propionaldehyde substrate, NAD, pH 9.6, 26.0 °C, 15 minutes; read-out: I50 values (molar concentration for 50% inhibition) for inhibition of liver acetaldehyde dehydrogenase
Description: The specific activity of the partially purified enzyme preparation was 172 units per milligram of protein. The assay system contained 30μ moles of sodium pyrophosphate buffer with a final pH of 9.6, 135μ moles of propylene glycol to serve as a vehicle for the compound being tested, 0.5μ mole of propionaldehyde, 1μ mole of nicotinamide adenine dinucleotide and 120 units of enzyme to initiate the reaction in a total volume of 3.0 milliliters. The assay mixture was contained in 1 centimeter silica cuvettes. The reaction was followed by measuring the increase in optical density at 340 mμ with time on the Beckman du spectrophotometer which was equipped with dual thermospacers set to maintain the temperature of the cell compartment at 26.0 ± 0.1° C. by means of a circulating water bath (Haake Thermostat F, Berlin). Readings of optical density were taken each minute for 15 minutes. The optical density at 15 minutes corrected for optical density at zero time was used to calculate percent inhibition compared with controls which contained all constituents except the compound being tested. Fifty percent inhibition values (I50) were determined from first order reaction plots at multiple levels of the tested compound. Sodium pyrophosphate changes pH when diluted with the other reaction constitutents in water; so, this effect was compensated for to bring the final pH of the incubation mixture to 9.6.

[2] = system: aldehyde dehydrogenase; settings: cited from earlier work; for effectiveness compared with disulfiram: evaluation said to considerably underestimate effectiveness
[3] = man and animals; cited from earlier work
[4] = system: E. criceti; settings: cited from earlier work
[5] = system: antispermatogenic activity; settings: Coulston et al.; Surrey U.S. Pat. No. 3,143,566; cited from earlier work
[6] = system: antispermatogenic activity; settings: cited from earlier work
[7] = system: spermatogenesis; settings: cited from earlier work

SMILES | IC50 [1] [nM] | effectiveness compared with disulfiram [2] | side effect [3] | further results
O=C(NCCCCCCCCNC(=O)C(Cl)Cl)c1ccc(Cl)cc1 [Example B-1, N-(dichloroacetyl)-N'-(4-chlorobenzoyl)-1,8-octanediamine] | 2700 | – | – | –
O=C(NCCCCCCCCNC(=O)C(Cl)Cl)c1ccc(Cl)c(Cl)c1 [Example B-2, N-(Dichloroacetyl)-N'-(3,4-dichlorobenzoyl)-1,8-octanediamine] | 820 | – | – | –
CCN(Cc1ccc(CN(CC)C(=O)C(Cl)Cl)cc1)C(=O)C(Cl)Cl [Win 13,099, N,N'-bis(dichloroacetyl)-N,N'-diethyl-1,4-bis(aminomethyl)benzene] | – | about as effective as disulfiram | a reaction to ethanol in man and animals | –
O=C(NCCCCCCCCNC(=O)C(Cl)Cl)C(Cl)Cl [Win 18,466, N,N'-Bis(dichloroacetyl)-1,8-octanediamine] | – | about as effective as disulfiram | a reaction to ethanol in man and animals | in vivo amebicidal activity against E. criceti in hamsters [4]: not to have in vivo amebicidal activity; inhibitor of aldehyde dehydrogenase [2]: to be an inhibitor of aldehyde dehydrogenase; antispermatogenic activity [5]: highly antispermatogenically-active; antispermatogenic activity in rats [6]: to have antispermatogenic activity in rats; suppression of spermatogenesis in man [7]: to suppress spermatogenesis in man
CCN(CC)C(=S)SSC(=S)N(CC)CC [disulfiram, bis(diethylthiocarbamoyl) disulfide] | 13000 | – | – | –
